Laboratory results from ChEMBL document CHEMBL3817801, “Synthesis and steroid sulfatase inhibitory activities of N-phosphorylated 3-(4-aminophenyl)-coumarin-7-O-sulfamates” (Medchemcomm, 2016).

Target: T1, Steryl-sulfatase (Homo sapiens, UniProt P08842)
T1 sequence (P08842 whole entry): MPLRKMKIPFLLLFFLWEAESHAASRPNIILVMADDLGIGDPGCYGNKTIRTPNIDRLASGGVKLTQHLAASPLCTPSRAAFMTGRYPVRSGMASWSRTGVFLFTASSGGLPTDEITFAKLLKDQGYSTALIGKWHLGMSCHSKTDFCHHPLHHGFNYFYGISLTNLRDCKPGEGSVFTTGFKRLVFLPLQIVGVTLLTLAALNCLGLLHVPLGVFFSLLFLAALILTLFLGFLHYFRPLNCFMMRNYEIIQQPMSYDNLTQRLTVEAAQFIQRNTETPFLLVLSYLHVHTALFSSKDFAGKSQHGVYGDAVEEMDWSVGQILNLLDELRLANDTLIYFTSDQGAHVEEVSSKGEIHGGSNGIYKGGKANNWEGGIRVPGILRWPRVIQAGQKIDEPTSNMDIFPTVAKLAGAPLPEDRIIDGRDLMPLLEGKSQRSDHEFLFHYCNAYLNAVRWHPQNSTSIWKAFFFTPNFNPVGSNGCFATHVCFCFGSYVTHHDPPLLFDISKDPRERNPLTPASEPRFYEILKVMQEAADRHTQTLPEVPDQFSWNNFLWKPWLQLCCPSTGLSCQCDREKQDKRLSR
Test: Inhibition of human placental steroid sulfatase using p-nitrophenyl sulfate as substrate after 15 mins by microplate reader method

`Cc1cc(=O)oc2cc(OS(N)(=O)=O)ccc12` and `NS(=O)(=O)Oc1ccc2ccc(=O)oc2c1` are within 1.5-fold of each other in IC50: 1030 nM for the first, 1380 nM for the second.

Going from `CCOP(=O)(Nc1ccc(-c2cc3ccc(OS(N)(=O)=O)cc3oc2=O)cc1)OCC` to `COP(=O)(Nc1ccc(-c2cc3ccc(OS(N)(=O)=O)cc3oc2=O)cc1)OC`, the IC50 rises from 510 nM to 780 nM (1.5-fold). The first is the more potent here.

First: CC1(C)COP(=O)(Nc2ccc(-c3cc4ccc(OS(N)(=O)=O)cc4oc3=O)cc2)OC1
Second: NS(=O)(=O)Oc1ccc2cc(-c3ccc(NP4(=O)OCCCO4)cc3)c(=O)oc2c1
The IC50 of the first is 1.6-fold lower: 450 nM for the first, 700 nM for the second. The first is the more potent here.

Going from `CCCCOP(=O)(Nc1ccc(-c2cc3ccc(OS(N)(=O)=O)cc3oc2=O)cc1)OCCCC` to `CC(C)OP(=O)(Nc1ccc(-c2cc3ccc(OS(N)(=O)=O)cc3oc2=O)cc1)OC(C)C`, the IC50 rises from 310 nM to 470 nM (1.5-fold).

`NS(=O)(=O)Oc1ccc2cc(-c3ccc(NP(=O)(Oc4ccccc4)Oc4ccccc4)cc3)c(=O)oc2c1` and `NS(=O)(=O)Oc1ccc2cc(-c3ccc(NP(=O)(OCc4ccccc4)OCc4ccccc4)cc3)c(=O)oc2c1` are within 1.5-fold of each other in IC50: 190 nM for the first, 240 nM for the second.
